Measured values from patent US20250186542A1, “COMPOSITION CONTAINING PEPTIDE COMPOUND FOR USE WITH SURFACTANT” (CHUGAI SEIYAKU KABUSHIKI KAISHA, priority 2022, published 2025).
Values after ≈ are worked out from the molar mass of the structure shown. Bridge positions count the residues as written; N and C are the ends. Square brackets hold non-standard residues; d marks the D form. Peptide text beside a SMILES is read from it. * marks the point of attachment. ξ: configuration not given here. hPhe(3-Cl-4-CF3) = N[C@@H](CCc1ccc(C(F)(F)F)c(Cl)c1)C(=O)O; Phe(3-Cl) = N[C@@H](Cc1cccc(Cl)c1)C(=O)O; NMeCha = CN[C@@H](CC1CCCCC1)C(=O)O; NMeChg = CN[C@H](C(=O)O)C1CCCCC1; NMeF = CN[C@@H](Cc1ccccc1)C(=O)O; NMeD = CN[C@@H](CC(=O)O)C(=O)O; dNMeD = CN[C@H](CC(=O)O)C(=O)O; dNMeL = CN[C@H](CC(C)C)C(=O)O; ξIle = CC[C@H](C)C(N)C(=O)O; NMeS = CN[C@@H](CO)C(=O)O; Pip = O=C(O)[C@@H]1CCCCN1; Nle = CCCC[C@H](N)C(=O)O; Piperidide = C1CCN(*)CC1; Pyrrolidide = C1CCN(*)C1; dNMeA = CN[C@H](C)C(=O)O; Ac5c = NC1(C(=O)O)CCCC1; Sar = CNCC(=O)O; Propyl = CCC*

Experiments:
Caco-2 cells = assay: Evaluation of Caco-2 membrane permeability; type: in vitro ADME; conditions: HBSS pH 7.4 4% BSA basal, 180 minutes; for Without 5 mM lauroyl-L-carnitine Permeability coefficient (Caco-2 Papp): 10 µM compound in FaSSIF/HBSS pH 6.5 apical, no lauroyl-L-carnitine; for With 5 mM lauroyl-L-carnitine Permeability coefficient (Caco-2 Papp): 10 µM compound, 5 mM lauroyl-L-carnitine in FaSSIF/HBSS pH 6.5 apical
Method: (§1) In the above measurements, a Pgp inhibitor, such as Zosquidar, can be added to the FaSSIF/HBSS buffer and the HBSS buffer, respectively.
(§2) After step (step 1) and before step (step 2) of the above, pre-incubation can be performed by allowing each well to stand at 5% CO2, 37° C., 80 rpm for 20 to 24 hours.
(§3) After pre-incubation, the solution at the Basal side can be removed and washed, and a new solution of the same composition can be added. A Pgp inhibitor can also be added to the new solution. When the pre-incubation is performed, it is preferable that a DMEM solution (pH 7.4) containing 4% BSA is used instead of the HBSS buffer (pH 7.4).
(§4) In addition, as the concentration of the substance to be evaluated on the donor side used in the calculation of the permeability coefficient in step (step 3) above, the concentration when initially added can be used, or the concentration measured by collecting the solution at the Apical side before the start of pre-incubation or the start of shaking in the above step (step 2) can be used. In particular, when the preincubation is performed, it is preferable to use the concentration of the solution at the Apical side collected before pre-incubation.

[1] = Evaluation of solubility in 50 mM phosphate buffer (PPB, pH 6.5); type: physicochemical
Method: To an excessive amount of a lyophilized powder of the compound, 50 mM phosphate buffer (PPB, pH 6.5) is added, and after shaking (37° C., 1 atm, 1800 rpm, for 22 to 24 hours), the mixture is filtered with a filter, and the compound concentration of the filtrate is measured by LC/MS/MS. Solubility (g/mL) is calculated from the measured compound concentration.
Solubility (μg/mL) was calculated from the measured compound concentration.

[2] = Evaluation of Caco-2 membrane permeability; type: in vitro ADME; conditions: human
Method: as §1, §2, §3, §4

[3] = 50 mM phosphate buffer pH 6.5, 37° C., 1 atm, 22 to 24 hours, read-out: PPB solubility
[4] = Caco-2, With 5 mM lauroyl-L-carnitine Permeability coefficient (Caco-2 Papp)
[5] = Caco-2, Without 5 mM lauroyl-L-carnitine Permeability coefficient (Caco-2 Papp)

SMILES	Without 5 mM lauroyl-L-carnitine Permeability coefficient (Caco-2 Papp) (Caco-2 cells) [×10⁻⁶ cm/s]	With 5 mM lauroyl-L-carnitine Permeability coefficient (Caco-2 Papp) (Caco-2 cells) [×10⁻⁶ cm/s]	solubility [1, 3] [µg/mL]	Papp A→B at 180 min ([2]; Caco-2, 5 mM lauroyl-L-carnitine in FaSSIF/HBSS pH 6.5 apical, HBSS pH 7.4 4% BSA basal, 180 minutes) [×10⁻⁶ cm/s]	Papp A→B at 180 min [2, 4] [×10⁻⁶ cm/s]	Papp A→B at 180 min [2, 5] [×10⁻⁶ cm/s]	solubility ([1]; pH 6.5) [µg/mL]
CC[C@@H](C)[C@H]1NC(=O)[C@@H](Cc2ccccc2)N(C)C(=O)CN(C)C(=O)C[C@@H](C(=O)N2CCCCC2)NC(=O)[C@@H](CC(C)C)N(C)C(=O)[C@@H](COC(C)(C)C)NC(=O)[C@@H](CC(C)C)N(C)C(=O)[C@@H](CCc2ccccc2)N(C)C(=O)CN(C)C(=O)[C@@H]([C@H](C)O)NC(=O)[C@@H](CC(C)C)N(C)C1=O (stereo in doubt) [Compound 7]	<0.0944	0.526	5.76 (≈ 4.11 µM)				
CC[C@H](C)[C@@H]1NC(=O)[C@H](CC(C)C)N(C)C(=O)CC(C(=O)N2CCCCC2)N(C)C(=O)[C@H](C2CCCC2)N(C)C(=O)C2(CCCC2)NC(=O)[C@@H]2CCCN2C(=O)[C@H](CCc2ccc(C(F)(F)F)c(Cl)c2)NC(=O)CN(C)C(=O)[C@H](CC2CCCCC2)N(C)C(=O)[C@@H]2CCN2C(=O)[C@H](C)N(C)C1=O (single isomer, unassigned) [Compound 8]	0.042	0.154	1.13 (≈ 0.777 µM)				
CC[C@H](C)[C@@H]1NC(=O)[C@H](CC(C)C)N(C)C(=O)CC(C(=O)N2CCOCC2)N(C)C(=O)[C@H](C2CCCC2)N(C)C(=O)C2(CCCC2)NC(=O)[C@@H]2CCCN2C(=O)[C@H](CCc2ccc(C(F)(F)F)c(Cl)c2)NC(=O)CN(C)C(=O)[C@H](CC2CCCCC2)N(C)C(=O)[C@@H]2CCN2C(=O)[C@H](C)N(C)C1=O (single isomer, unassigned) [Compound 2]	0.0491	0.265	1.18 (≈ 0.81 µM)				
CC[C@H](C)[C@@H]1NC(=O)[C@H](CC(C)C)N(C)C(=O)CC(C(=O)N2CCOCC2)N(C)C(=O)[C@H](C2CCCC2)N(C)C(=O)C2(CCCC2)NC(=O)[C@@H]2CCCN2C(=O)[C@H](CCc2ccc(C(F)(F)F)c(Cl)c2)NC(=O)CN(C)C(=O)[C@H](C2CCCC2)N(C)C(=O)[C@@H]2CCN2C(=O)[C@H](C)NC1=O (single isomer, unassigned) [Compound 10]	<0.00976		101 (≈ 71.6 µM)	0.014			
CC[C@H](C)[C@@H]1NC(=O)[C@H](CC(C)C)N(C)C(=O)CC(C(=O)N2CCOCC2)N(C)C(=O)[C@H](C2CCCC2)N(C)C(=O)C2(CCCC2)NC(=O)[C@@H]2CCCN2C(=O)[C@H](CCc2ccc(C(F)(F)F)c(Cl)c2)NC(=O)CN(C)C(=O)[C@H](Cc2ccc(C)cc2)N(CC)C(=O)[C@@H]2CCN2C(=O)[C@H](C)N(C)C1=O (single isomer, unassigned) [Compound 3]					0.366	0.215	1.81 (≈ 1.22 µM)
CC[C@H](C)[C@@H]1NC(=O)C(CC(C)C)N(C)C(=O)CC(C(=O)N(C)C)N(C)C(=O)[C@H](C2CCCC2)N(C)C(=O)C(C)NC(=O)C(C)N(C)C(=O)[C@H](CCc2ccc(C(F)(F)F)c(Cl)c2)NC(=O)CN(C)C(=O)[C@H](CC2CCCCC2)N(C)C(=O)[C@@H]2CCN2C(=O)[C@H](C)N(C)C1=O (single isomer, unassigned) [Compound 9]	0.00949	0.0214	9.18 (≈ 6.74 µM)				
CC[C@H](C)C1NC(=O)[C@@H](CC(C)C)N(C)C(=O)C[C@H](C(=O)N2CCCCC2)N(C)C(=O)[C@H](C2CCCCC2)N(C)C(=O)C2(CCCC2)NC(=O)[C@@H]2CCCN2C(=O)[C@H](CCc2ccc(C(F)(F)F)c(Cl)c2)NC(=O)CN(C)C(=O)[C@H](CC2CCCCC2)N(C)C(=O)CN(C)C(=O)CN(C)C1=O (some centres unmarked) [Compound 1] ([dNMeL][ξIle][Sar][Sar][NMeCha][Sar][hPhe(3-Cl-4-CF3)]P[Ac5c][NMeChg][dNMeD]-Piperidide; lactam N-11)	0.0142	0.253	1.12 (≈ 0.777 µM)				
CCCC[C@@H]1NC(=O)[C@@H]2CCCN2C(=O)[C@H](CCCC)NC(=O)[C@@H](C)N(C)C(=O)C[C@@H](C(=O)N2CCCC2)N(C)C(=O)[C@@H]2CCCN2C(=O)[C@H]([C@@H](C)CC)NC(=O)[C@@H]2CCCCN2C(=O)[C@H](Cc2cccc(Cl)c2)NC(=O)[C@H](COCCC)N(C)C(=O)[C@H](Cc2ccccc2)N(C)C1=O [Compound 5] ([dNMeA][Nle]P[Nle][NMeF][NMeS](Propyl)[Phe(3-Cl)][Pip]IP[NMeD]-Pyrrolidide; lactam N-11)	0.00372	0.0264					
CCCCN1CC(=O)N(C)[C@@H](CC(C)C)C(=O)N[C@@H](Cc2ccc(C(=O)NS(C)(=O)=O)c(OC)c2)C(=O)N(C)[C@@H](CC(C)C)C(=O)N(C)[C@@H](CC(C)C)C(=O)NC(C(=O)N2CCCCC2)CC(=O)NC(CC(C)C)C(=O)N(C)[C@@H](Cc2ccccc2)C(=O)NC(C(C)C)C(=O)N(C)[C@@H](CC(C)C)C(=O)N[C@@H]([C@H](C)O)C1=O (single isomer, unassigned) [Compound 11]					0.0302	0.00921	16.2 (≈ 10.3 µM)
